Assay results reported in article PMC5329948, “Caspase vinyl sulfone small molecule inhibitors prevent axonal degeneration in human neurons and reverse cognitive impairment in Caspase-6-overexpressing mice” (Molecular Neurodegeneration, 2017).
Values joined by “and” are separate entries in the source; they are usually repeats but may differ in a detail not shown here. Equal entries are not always repeated.

What was measured:
[1] = Blood-brain barrier permeability by LC/MS-MS after carotid artery injection; assay type: in vivo, mouse; settings: for concentration at 5 min: male, Casp6-expressing transgenic mice, mouse, in vivo
Description: Only males were used and littermates from each genotype (wild type (WT)/WT, WT/Cre, & knock-in (KI/)Cre) were tested together. The experimenter was blind to genotype and treatment groups. Mice were administered 20 mg/kg NWL-117 or physiological saline (0.9% NaCl) by intraperitoneal injections two times 48 h apart. […] Blood brain barrier permeability of NWL-117 caspase inhibitor: Briefly, 18–22 month old Casp6 mice were anesthetised with isoflurane, warmed with a heating blanket, and their physiological vitals (heart rate, body temperature, and respiration) monitored. The skin over the mouse’s neck was shaved, xylocaine applied, and an incision was made along the midline. Under a surgical microscope, the right carotid artery was gently separated from surrounding tissue. Two suture threads were placed at the proximal and distal ends of the carotid, and a small incision was made along the carotid wall. A micro-catheter (attached to a 1 ml syringe controlled by a micropump) was inserted and pushed to the entrance of the internal carotid artery. The catheter was secured in place using suture thread. NWL-117 (20 mg/kg) was infused via the micro-catheter using a pump set at 50 μL/min (total volume between 64 μL and 130 μL). After 5 min, blood was collected by intra-cardiac puncture, the mouse was perfused through the heart with ice cold saline for 2–3 min. The brain was removed and hippocampi were dissected and frozen on dry ice and stored. Samples were sent to the Biopharmacy platform at the University of Montreal (Quebec, Canada) for liquid chromatography and tandem mass spectrometry analysis. The integrity of the blood-brain barrier was confirmed by injecting 3% Evan’s blue solution in 20 month old Casp6 mice. Mouse cognitive analysis by novel object recognition: Mice were handled during 5 min for one week prior to behavioral tests. Novel object recognition (NOR) task was administered in three phases: habituation, familiarization (pre-exposure), and test phase. For habituation, mice were placed in the NOR box (80 cm x 80 cm, Stoelting Co, Wood Dale, IL, USA) for 5 min. After 24 h, the pre-exposure phase was initiated by allowing the animals to explore two identical objects inside the NOR box. Then, following a 2 h gap, mice were re-introduced to the NOR box which now contained a familiar and a novel object. The position of the novel object was counterbalanced between animals to avoid any bias related to a preference in the location of the new object and the use of potential confounding spatial cues. The objects were located in the middle of the NW and SE quadrants of the box, equidistantly from the box corners and from each other. The mice were placed in the middle of the SW quadrant. Washing the box and objects with 70% ethanol eliminated odour cues. The number of times touching each object was manually recorded, while the total distance, percent time moving, and number of entries into virtual cells were recorded using the HVS 2100 automated video tracking system (HVS Image, Buckingham, UK). Animals whose exploration was considered insufficient to allow recognition (<10 s per object) during the familiarization phase were excluded from analysis. Different object sets were used in the pre- and post-tests. Immunohistochemistry on mouse brain slices: Following behavioural analysis, animals were anaesthetized under isoflurane and perfused intracardially with ice cold saline for 7 min and 4% paraformaldehyde for 20 min. […]

[2] = system: Casp6-overexpressing KI/Cre mice; test: Novel object recognition task in Casp6-overexpressing KI/Cre mice; assay type: in vivo, mouse; settings: 20 mg/kg i.p.
Description: Casp6 transgenic mouse model: All animal procedures followed the Canadian Council on Animal Care guidelines and were approved by the McGill Animal care committees. Sixteen to 20 month old C57BL/6 J mice were bred and aged in the pathogen-free Goodman Cancer Research Centre Mouse Transgenic Facility at McGill University. Mice were housed in a temperature-controlled room at 22 °C and were kept on a 12 h light/dark cycle. Food and water were available at libitum. Casp6 overexpressing mice (KI/Cre) express Casp6p20p10 under the CAG promoter (CMV immediate early enchancer/chicken β-actin promoter fusion) in the CA1 pyramidal cell layer of the hippocampus under the control of calmodulin kinase IIa (CAMKIIa)-regulated Cre expression.
Only males were used and littermates from each genotype (wild type (WT)/WT, WT/Cre, & knock-in (KI/)Cre) were tested together. The experimenter was blind to genotype and treatment groups. Mice were administered 20 mg/kg NWL-117 or physiological saline (0.9% NaCl) by intraperitoneal injections two times 48 h apart. […] Blood brain barrier permeability of NWL-117 caspase inhibitor: Briefly, 18–22 month old Casp6 mice were anesthetised with isoflurane, warmed with a heating blanket, and their physiological vitals (heart rate, body temperature, and respiration) monitored. The skin over the mouse’s neck was shaved, xylocaine applied, and an incision was made along the midline. Under a surgical microscope, the right carotid artery was gently separated from surrounding tissue. Two suture threads were placed at the proximal and distal ends of the carotid, and a small incision was made along the carotid wall. A micro-catheter (attached to a 1 ml syringe controlled by a micropump) was inserted and pushed to the entrance of the internal carotid artery. The catheter was secured in place using suture thread. […] The number of times touching each object was manually recorded, while the total distance, percent time moving, and number of entries into virtual cells were recorded using the HVS 2100 automated video tracking system (HVS Image, Buckingham, UK). […]

[3] = Casp6 mice, 20 mg/kg carotid artery injection, 5 min, one value per animal, 20 mg/kg

CCC(C)[C@H](NC(=O)[C@H](CCC(=O)O)NC(=O)[C@@H](NC(=O)OCc1ccccc1)C(C)C)C(=O)N[C@H](/C=C/S(C)(=O)=O)CC(=O)O (some centres unmarked) [NWL-117]
Hippocampus concentration [1, 3]: 193 nM and 816 nM and 67.9 nM and 356 nM and 879 nM | Plasma concentration [1, 3]: 48.521 µM and 3.416 µM and 8.998 µM and 7.408 µM and 25.425 µM | Ratio of [hippocampal]/[plasma] [1, 3]: 0.004 and 0.239 and 0.008 and 0.048 and 0.035 | concentration at 5 min [1]: 3.4 to 48 µM | concentration at 5 min ([1]; 20 mg/kg): 0.0679 to 0.879 µM | locomotor or exploratory activities ([2]; two injections): no effect | NOR performance in KI/Cre mice ([2]; two injections 48 h apart): regained normal NOR performance | NOR performance in control mice ([2]; two injections 48 h apart, WT/WT and WT/Cre): performed equally to saline-treated mice
